Molecular target: T1, human HSD17β13 (stable HEK293T cell line overexpressing human HSD17β13) (Homo sapiens, UniProt Q7Z5P4)
T1 construct: expressed in transfected cells
T1 sequence (Q7Z5P4 20-300): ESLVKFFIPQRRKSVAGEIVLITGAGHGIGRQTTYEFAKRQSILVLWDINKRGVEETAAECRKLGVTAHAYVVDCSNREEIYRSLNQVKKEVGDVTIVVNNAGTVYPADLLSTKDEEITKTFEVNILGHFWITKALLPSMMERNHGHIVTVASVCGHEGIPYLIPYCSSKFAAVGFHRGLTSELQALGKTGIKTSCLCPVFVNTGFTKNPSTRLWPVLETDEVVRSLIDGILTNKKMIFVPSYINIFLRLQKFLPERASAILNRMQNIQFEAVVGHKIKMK
Assay: HSD17β13 inhibitor cell-based screening assay (conversion of estradiol-d2 to estrone-d2 by RF-MS)
Settings: conversion of estradiol-d2 to estrone-d2 after 24 hours
Method in brief: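 Cellular IC50 is based on 24-h conversion of estradiol-d2 (5 μM final) to estrone-d2, measured by RF-MS in acetonitrile-precipitated supernatants. Assay uses human HSD17β13-overexpressing HEK293T cells (7.5E3/well, 1% charcoal/dextran FBS MEM), with compounds dosed as a 9-point 1:3 series to 10 μM final. ATPlite luminescence on overexpressing and parent lines measured viability.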

Row | IC50 [nM] | SMILES
1 | < 100 | O=c1c2c(nc(-c3cnc(C(F)(F)F)cc3C3CC3)n1Cc1ccc(C(F)(F)F)nc1)sc1c(O)c(Cl)ccc12 [Example 179]
2 | < 100 | O=c1c2c(nc(-c3cc(F)c(C(F)F)cc3C3CC3)n1Cc1ccc(C(F)(F)F)nc1)sc1c(O)c(Cl)ccc12 [Example 181]
3 | < 100 | CS(=O)(=O)Nc1ccc(-c2nc3sc4c(O)c(Cl)ccc4c3c(=O)n2Cc2cnc(C(F)(F)F)nc2)c(C2CC2)c1 [Example 185]
4 | < 100 | Cn1cc(Cn2c(-c3ccc(C(F)F)cc3C3CC3)nc3sc4c(O)c(Cl)ccc4c3c2=O)ccc1=O [Example 186]
5 | < 100 | COc1ccc(-c2nc3sc4c(O)c(Cl)ccc4c3c(=O)n2CCCc2cnco2)c(C2CC2)c1 [Example 189]
6 | < 100 | COc1ccc(-c2nc3sc4c(O)c(Cl)ccc4c3c(=O)n2Cc2cnc(C)s2)c(C2CC2)c1 [Example 192]
7 | < 100 | COc1ccc(-c2nc3sc4c(O)c(Cl)ccc4c3c(=O)n2Cc2cncn2C)c(C2CC2)c1 [Example 193]
8 | < 100 | COc1ccc(-c2nc3sc4c(O)c(Cl)ccc4c3c(=O)n2Cc2cnc(C(C)C)s2)c(C2CC2)c1 [Example 196]
9 | < 100 | COc1ccc(-c2nc3sc4c(O)c(Cl)ccc4c3c(=O)n2Cc2cnc(C(F)F)s2)c(C2CC2)c1 [Example 197]
10 | < 100 | COc1ccc(-c2nc3sc4c(O)c(Cl)ccc4c3c(=O)n2Cc2cnc(C(F)(F)F)s2)c(C2CC2)c1 [Example 198]
11 | < 100 | COc1ccc(-c2nc3sc4c(O)c(Cl)ccc4c3c(=O)n2Cc2nncs2)c(C2CC2)c1 [Example 202]
12 | < 100 | O=c1c2c(nc(-c3cnc(C(F)(F)F)cc3C3CC3)n1Cc1cnco1)sc1c(O)c(Cl)ccc12 [Example 204]
13 | < 100 | CCc1ncc(Cn2c(-c3cc(F)c(F)cc3C3CC3)nc3sc4c(O)c(Cl)ccc4c3c2=O)s1 [Example 205]
14 | 100 to 500 | C/C=C/c1cc2cn[nH]c2cc1-c1nc2sc3c(O)c(Cl)ccc3c2c(=O)n1Cc1cnco1 [Example 206]

Further lines, the molecule ahead of its results:

Row | SMILES | IC50 [nM]
15 | O=c1c2c(nc(-c3ccc(C(F)F)cc3C3CC3)n1Cc1ccc(C(F)(F)F)nc1)sc1c(O)c(Cl)ccc12 [Example 180] | < 100
16 | Cn1ncc2cc(-c3nc4sc5c(O)c(Cl)ccc5c4c(=O)n3Cc3cnc(C(F)(F)F)nc3)c(C3CC3)cc21 [Example 182] | < 100
17 | O=c1c2c(nc(-c3cc(F)c(F)cc3C3CC3)n1Cc1cnc(C(F)(F)F)nc1)sc1c(O)c(F)ccc12 [Example 183] | < 100
18 | O=c1c2c(nc(-c3cc(F)c(F)cc3C3CC3)n1Cc1cnc(C(F)(F)F)nc1)sc1c(O)ccc(F)c12 [Example 184] | < 100
19 | Cn1cc(Cn2c(-c3cc(F)c(C(F)F)cc3C3CC3)nc3sc4c(O)c(Cl)ccc4c3c2=O)ccc1=O [Example 187] | < 100
20 | COc1ccc(-c2nc3sc4c(O)c(Cl)ccc4c3c(=O)n2CCc2cnco2)c(C2CC2)c1 [Example 188, 7-chloro-2-(2-cyclopropyl-4-methoxyphenyl)-8-hydroxy-3-(2-(oxazol-5-yl)ethyl)benzo[4,5]thieno[2,3-d]pyrimidin-4(3H)-one] | 100 to 500
21 | Cn1ncc2cc(C3CC3)c(-c3nc4sc5c(O)c(Cl)ccc5c4c(=O)n3Cc3cnco3)cc21 [Example 194] | 500 to 1000
22 | Cn1cc2cc(C3CC3)c(-c3nc4sc5c(O)c(Cl)ccc5c4c(=O)n3Cc3cnco3)cc2n1 [Example 195] | < 100
23 | COc1ccc(-c2nc3sc4c(O)c(Cl)ccc4c3c(=O)n2Cc2cc(C(F)F)no2)c(C2CC2)c1 [Example 199] | < 100
24 | COc1ccc(-c2nc3sc4c(O)c(Cl)ccc4c3c(=O)n2Cc2ncc(C)o2)c(C2CC2)c1 [Example 200, 7-chloro-2-(2-cyclopropyl-4-methoxyphenyl)-8-hydroxy-3-((5-methyloxazol-2-yl)methyl)benzo[4,5]thieno[2,3-d]pyrimidin-4(3H)-one] | < 100
25 | COc1ccc(-c2nc3sc4c(O)c(Cl)ccc4c3c(=O)n2Cc2cnn(C(F)(F)F)c2)c(C2CC2)c1 [Example 201] | < 100
26 | COc1cc(C2CC2)c(-c2nc3sc4c(O)c(Cl)ccc4c3c(=O)n2Cc2cnco2)cn1 [Example 203] | 100 to 500
